Experimental data: US20240208992A1, “MACROCYCLES AS CFTR MODULATORS” (Idorsia Pharmaceuticals Ltd, priority 2021, published 2024)

Biological target: human F508del-CFTR (Homo sapiens, UniProt P13569, DEL508-508)
Test: F508del-CFTR cell surface expression (corrector activity), DiscoveRx ß-galactosidase complementation chemiluminescence assay in recombinant U2OS cell line;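 also: U2OS cells co-expressing ProLink-tagged F508del-CFTR and a membrane-anchored enzyme acceptor, where more surface CFTR restores β-galactosidase activity measured by chemiluminescence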
Conditions: for EC50: EC50, F508del-CFTR cell surface expression, U2OS cells, 16h compound incubation, geomean values; for Emax: U2OS, in relation to Emax of corrector lumacaftor (=100%), arithmetic mean values

Sequence of human F508del-CFTR (P13569 with tags, fused parts or gaps DEL508-508): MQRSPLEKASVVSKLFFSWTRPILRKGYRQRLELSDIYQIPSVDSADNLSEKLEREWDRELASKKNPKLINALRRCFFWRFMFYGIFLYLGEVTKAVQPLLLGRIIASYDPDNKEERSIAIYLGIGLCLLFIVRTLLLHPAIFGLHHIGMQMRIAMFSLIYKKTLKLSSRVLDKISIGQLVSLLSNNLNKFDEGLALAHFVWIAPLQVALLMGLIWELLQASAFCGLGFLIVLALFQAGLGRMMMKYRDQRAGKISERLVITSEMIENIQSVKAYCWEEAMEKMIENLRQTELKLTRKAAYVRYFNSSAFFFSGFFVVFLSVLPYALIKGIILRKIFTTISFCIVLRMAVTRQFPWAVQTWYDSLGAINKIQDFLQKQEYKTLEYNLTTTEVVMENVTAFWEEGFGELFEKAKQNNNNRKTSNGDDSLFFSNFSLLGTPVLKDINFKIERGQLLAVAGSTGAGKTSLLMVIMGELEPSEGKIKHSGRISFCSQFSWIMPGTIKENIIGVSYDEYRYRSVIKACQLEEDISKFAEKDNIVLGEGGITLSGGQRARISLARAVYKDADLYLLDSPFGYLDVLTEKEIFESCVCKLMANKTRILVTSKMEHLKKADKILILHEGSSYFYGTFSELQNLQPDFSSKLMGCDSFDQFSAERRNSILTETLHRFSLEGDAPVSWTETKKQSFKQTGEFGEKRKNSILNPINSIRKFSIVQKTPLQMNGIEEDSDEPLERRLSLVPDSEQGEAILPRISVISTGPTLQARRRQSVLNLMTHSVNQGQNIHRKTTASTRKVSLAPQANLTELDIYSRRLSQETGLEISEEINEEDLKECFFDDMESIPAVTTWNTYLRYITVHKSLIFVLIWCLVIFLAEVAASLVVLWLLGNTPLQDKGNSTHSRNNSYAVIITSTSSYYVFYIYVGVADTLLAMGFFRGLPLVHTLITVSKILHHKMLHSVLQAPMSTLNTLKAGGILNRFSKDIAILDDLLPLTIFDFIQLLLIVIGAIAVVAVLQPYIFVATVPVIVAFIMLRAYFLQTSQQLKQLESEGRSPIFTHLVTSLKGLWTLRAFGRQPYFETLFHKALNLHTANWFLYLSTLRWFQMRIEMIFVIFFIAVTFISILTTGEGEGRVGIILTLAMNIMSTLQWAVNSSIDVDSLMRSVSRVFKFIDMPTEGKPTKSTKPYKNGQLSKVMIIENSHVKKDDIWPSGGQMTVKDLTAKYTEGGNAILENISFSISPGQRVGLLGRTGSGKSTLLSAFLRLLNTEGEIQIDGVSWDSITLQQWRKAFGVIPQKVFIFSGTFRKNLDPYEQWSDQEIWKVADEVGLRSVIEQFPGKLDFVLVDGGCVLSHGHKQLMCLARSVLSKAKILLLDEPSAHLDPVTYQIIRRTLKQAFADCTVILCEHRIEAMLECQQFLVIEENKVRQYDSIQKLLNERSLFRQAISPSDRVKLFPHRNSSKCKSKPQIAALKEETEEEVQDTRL

| SMILES | EC50 [nM] | Emax [%] |
| --- | --- | --- |
| COc1cccc(CCNC(=O)[C@@H]2CC(=O)N(C)[C@@H](CC(C)C)C(=O)N3CCN(S(=O)(=O)c4cccc(OC)c4)C[C@@H]3C(=O)N[C@H](Cc3ccccc3)COc3ccc4ccccc4c3C(=O)N2)c1 [Example 739, (4aR,7R,18S,22S)-7-benzyl-22-isobutyl-N-(3-methoxyphenethyl)-3-((3-methoxyphenyl)sulfonyl)-21-methyl-5,16,20,23-tetraoxo-2,3,4,4a,5,6,7,8,16,17,18,19,20,21,22,23-hexadecahydro-1H-naphtho[1,2-p]pyrazino[2,1-f][1]oxa[4,7,10,14]tetraazacycloheptadecine-18-carboxamide] | 101 | 297 |
| COc1cccc(CCNC(=O)[C@@H]2CC(=O)N(C)[C@@H](CC(C)C)C(=O)N3CCN(S(=O)(=O)c4cc(OC)ccc4F)C[C@@H]3C(=O)N[C@H](Cc3ccccc3)COc3ccc4ccccc4c3C(=O)N2)c1 [Example 740, (4aR,7R,18S,22S)-7-benzyl-3-((2-fluoro-5-methoxyphenyl)sulfonyl)-22-isobutyl-N-(3-methoxyphenethyl)-21-methyl-5,16,20,23-tetraoxo-2,3,4,4a,5,6,7,8,16,17,18,19,20,21,22,23-hexadecahydro-1H-naphtho[1,2-p]pyrazino[2,1-f][1]oxa[4,7,10,14]tetraazacycloheptadecine-18-carboxamide] | 111 | 280 |
| COc1cccc(CCNC(=O)[C@@H]2CC(=O)N(C)[C@@H](CC(C)C)C(=O)N3CCN(S(=O)(=O)c4ccc5c(c4)OCCN5C)C[C@@H]3C(=O)N[C@H](Cc3ccccc3)COc3ccc4ccccc4c3C(=O)N2)c1 [Example 741, (4aR,7R,18S,22S)-7-benzyl-22-isobutyl-N-(3-methoxyphenethyl)-21-methyl-3-((4-methyl-3,4-dihydro-2H-benzo[b][1,4]oxazin-7-yl)sulfonyl)-5,16,20,23-tetraoxo-2,3,4,4a,5,6,7,8,16,17,18,19,20,21,22,23-hexadecahydro-1H-naphtho[1,2-p]pyrazino[2,1-f][1]oxa[4,7,10,14]tetraazacycloheptadecine-18-carboxamide] | 116 | 294 |
| COc1cccc(CCNC(=O)[C@@H]2CC(=O)N(C)[C@@H](CC(C)C)C(=O)N3CCN(S(=O)(=O)c4cccnc4)C[C@@H]3C(=O)N[C@H](Cc3ccccc3)COc3ccc4ccccc4c3C(=O)N2)c1 [Example 742, (4aR,7R,18S,22S)-7-benzyl-22-isobutyl-N-(3-methoxyphenethyl)-21-methyl-5,16,20,23-tetraoxo-3-(pyridin-3-ylsulfonyl)-2,3,4,4a,5,6,7,8,16,17,18,19,20,21,22,23-hexadecahydro-1H-naphtho[1,2-p]pyrazino[2,1-f][1]oxa[4,7,10,14]tetraazacycloheptadecine-18-carboxamide] | 214 | 246 |
| COCCCS(=O)(=O)N1CCN2C(=O)[C@H](CC(C)C)N(C)C(=O)C[C@@H](C(=O)NCCc3cccc(OC)c3)NC(=O)c3c(ccc4ccccc34)OC[C@@H](Cc3ccccc3)NC(=O)[C@H]2C1 [Example 743, (4aR,7R,18S,22S)-7-benzyl-22-isobutyl-N-(3-methoxyphenethyl)-3-((3-methoxypropyl)sulfonyl)-21-methyl-5,16,20,23-tetraoxo-2,3,4,4a,5,6,7,8,16,17,18,19,20,21,22,23-hexadecahydro-1H-naphtho[1,2-p]pyrazino[2,1-f][1]oxa[4,7,10,14]tetraazacycloheptadecine-18-carboxamide] | 207 | 217 |
| COc1cccc(CCNC(=O)[C@@H]2CC(=O)N(C)[C@@H](CC(C)C)C(=O)N3CCN(S(=O)(=O)c4cncc(OC)c4)C[C@@H]3C(=O)N[C@H](Cc3ccccc3)COc3ccc4ccccc4c3C(=O)N2)c1 [Example 744, (4aR,7R,18S,22S)-7-benzyl-22-isobutyl-N-(3-methoxyphenethyl)-3-((5-methoxypyridin-3-yl)sulfonyl)-21-methyl-5,16,20,23-tetraoxo-2,3,4,4a,5,6,7,8,16,17,18,19,20,21,22,23-hexadecahydro-1H-naphtho[1,2-p]pyrazino[2,1-f][1]oxa[4,7,10,14]tetraazacycloheptadecine-18-carboxamide] | 178 | 239 |
| COc1cccc(CCNC(=O)[C@@H]2CC(=O)N(C)[C@@H](CC(C)C)C(=O)N3CCN(S(=O)(=O)CCN4CCOCC4)C[C@@H]3C(=O)N[C@H](Cc3ccccc3)COc3ccc4ccccc4c3C(=O)N2)c1 [Example 745, (4aR,7R,18S,22S)-7-benzyl-22-isobutyl-N-(3-methoxyphenethyl)-21-methyl-3-((2-morpholinoethyl)sulfonyl)-5,16,20,23-tetraoxo-2,3,4,4a,5,6,7,8,16,17,18,19,20,21,22,23-hexadecahydro-1H-naphtho[1,2-p]pyrazino[2,1-f][1]oxa[4,7,10,14]tetraazacycloheptadecine-18-carboxamide] | 693 | 206 |
| COc1cccc(CCNC(=O)[C@@H]2CC(=O)N(C)[C@@H](CC(C)C)C(=O)N3CCN(S(=O)(=O)CC4CCOCC4)C[C@@H]3C(=O)N[C@H](Cc3ccccc3)COc3ccc4ccccc4c3C(=O)N2)c1 [Example 746, (4aR,7R,18S,22S)-7-benzyl-22-isobutyl-N-(3-methoxyphenethyl)-21-methyl-5,16,20,23-tetraoxo-3-(((tetrahydro-2H-pyran-4-yl)methyl)sulfonyl)-2,3,4,4a,5,6,7,8,16,17,18,19,20,21,22,23-hexadecahydro-1H-naphtho[1,2-p]pyrazino[2,1-f][1]oxa[4,7,10,14]tetraazacycloheptadecine-18-carboxamide] | 211 | 213 |
| COc1cccc(CCNC(=O)[C@@H]2CC(=O)N(C)[C@@H](CC(C)C)C(=O)N3CCN(S(=O)(=O)c4ccccn4)C[C@@H]3C(=O)N[C@H](Cc3ccccc3)COc3ccc4ccccc4c3C(=O)N2)c1 [Example 747, (4aR,7R,18S,22S)-7-benzyl-22-isobutyl-N-(3-methoxyphenethyl)-21-methyl-5,16,20,23-tetraoxo-3-(pyridin-2-ylsulfonyl)-2,3,4,4a,5,6,7,8,16,17,18,19,20,21,22,23-hexadecahydro-1H-naphtho[1,2-p]pyrazino[2,1-f][1]oxa[4,7,10,14]tetraazacycloheptadecine-18-carboxamide] | 234 | 213 |
| Cc1cc(CCNC(=O)[C@@H]2CC(=O)N(C)[C@@H](CC(C)C)C(=O)N3CCN(S(=O)(=O)c4ccc5c(c4)OCCN5C)C[C@@H]3C(=O)N[C@H](Cc3ccccc3)COc3cnc4ccccc4c3C(=O)N2)on1 [Example 748, (9S,13S,19aR,22R)-22-benzyl-13-isobutyl-12-methyl-18-((4-methyl-3,4-dihydro-2H-benzo[b][1,4]oxazin-7-yl)sulfonyl)-N-(2-(3-methylisoxazol-5-yl)ethyl)-7,11,14,20-tetraoxo-7,8,9,10,11,12,13,14,17,18,19,19a,20,21,22,23-hexadecahydro-16H-pyrazino[2′,11:6,7][1]oxa[4,7,10,14]tetraazacycloheptadecino[17,16-c]quinoline-9-carboxamide] | 529 | 295 |
| Cc1cc(CCNC(=O)[C@@H]2CC(=O)N(C)[C@@H](CC(C)C)C(=O)N3CCN(S(=O)(=O)c4cccc(OC(F)(F)F)c4)C[C@@H]3C(=O)N[C@H](Cc3ccccc3)COc3cnc4ccccc4c3C(=O)N2)on1 [Example 749, (9S,13S,19aR,22R)-22-benzyl-13-isobutyl-12-methyl-N-(2-(3-methylisoxazol-5-yl)ethyl)-7,11,14,20-tetraoxo-18-((3-(trifluoromethoxy)phenyl)sulfonyl)-7,8,9,10,11,12,13,14,17,18,19,19a,20,21,22,23-hexadecahydro-16H-pyrazino[2′,1′:6,7][1]oxa[4,7,10,14]tetraazacycloheptadecino[17,16-c]quinoline-9-carboxamide] | 153 | 301 |
| COc1cccc(CCNC(=O)[C@@H]2CC(=O)N(C)[C@@H](CC(C)C)C(=O)N3CCN(C(C)=O)C[C@@H]3C(=O)N[C@H](Cc3ccccc3)COc3ccc4ccccc4c3C(=O)N2)c1 [Example 750, (4aR,7R,18S,22S)-3-Acetyl-7-benzyl-22-isobutyl-N-(3-methoxyphenethyl)-21-methyl-5,16,20,23-tetraoxo-2,3,4,4a,5,6,7,8,16,17,18,19,20,21,22,23-hexadecahydro-1H-naphtho[1,2-p]pyrazino[2,1-f][1]oxa[4,7,10,14]tetraazacycloheptadecine-18-carboxamide] | 784 | 267 |
| COc1cccc(CCNC(=O)[C@@H]2CC(=O)N(C)[C@@H](CC(C)C)C(=O)N3CCN(C(=O)CC(C)C)C[C@@H]3C(=O)N[C@H](Cc3ccccc3)COc3ccc4ccccc4c3C(=O)N2)c1 [Example 751, (4aR,7R,18S,22S)-7-benzyl-22-isobutyl-N-(3-methoxyphenethyl)-21-methyl-3-(3-methylbutanoyl)-5,16,20,23-tetraoxo-2,3,4,4a,5,6,7,8,16,17,18,19,20,21,22,23-hexadecahydro-1H-naphtho[1,2-p]pyrazino[2,1-f][1]oxa[4,7,10,14]tetraazacycloheptadecine-18-carboxamide] | 217 | 213 |
| COCCC(=O)N1CCN2C(=O)[C@H](CC(C)C)N(C)C(=O)C[C@@H](C(=O)NCCc3cccc(OC)c3)NC(=O)c3c(ccc4ccccc34)OC[C@@H](Cc3ccccc3)NC(=O)[C@H]2C1 [Example 752, (4aR,7R,18S,22S)-7-benzyl-22-isobutyl-N-(3-methoxyphenethyl)-3-(3-methoxypropanoyl)-21-methyl-5,16,20,23-tetraoxo-2,3,4,4a,5,6,7,8,16,17,18,19,20,21,22,23-hexadecahydro-1H-naphtho[1,2-p]pyrazino[2,1-f][1]oxa[4,7,10,14]tetraazacycloheptadecine-18-carboxamide] | 706 | 200 |
